Test results from US20190351029A1, “MODULATION OF ISCHEMIC CELL BIOENERGETICS” (East Carolina University, priority 2017, published 2019).
Structures can show the parent of a compound that is named as a salt.

System: endothelial (HUVEC) cells
Assay: AAV-mediated expression of PFKFB3 in endothelial cells
Type: cell-based, human
Conditions: HUVEC on Matrigel; PFKFB3 inhibited
Excerpt: To begin examining the therapeutic potential of PFKFB3 in PAD, an AAV vector was generated to deliver PFKFB3 cloning the PFKFB3 coding sequence into an AAV2 ITR vector with expression driven by the ubiquitous cytomegalovirus promoter (CMV) promoter. AAV-PFKFB3 or control virus (AAV-DJ-GFP) was delivered to muscle (primary mouse myoblast) and endothelial (HUVEC) cells at a multiplicity of infection (MOI) of 10,000.

SMILES	effect on enhanced tube formation of AAV-DJ-PFKFB3 treated endothelial cells
O=C(C=Cc1ccc2ccccc2n1)c1ccncc1 [PFK15, 1-(4-pyridinyl)-3-(2-quinolinyl)-2-propen-1-one]	abolished

System: hypoxic cell growth
Assay: High-throughput hypoxic cell growth assays
Type: cell-based
Conditions: not given
Excerpt: In some embodiments, the presently disclosed subject matter relates to the discovery that genetically or pharmacologically enhancing glycolytic metabolism is protective against hypoxia/ischemia. Particularly, in accordance with some embodiments of the presently disclosed subject matter, it has been uncovered that elevated expression of the enzyme 6-phosphofructo-2-kinase/fructose-2,6-bisphosphatase 3 (PFKFB3), a potent allosteric activator of glycolysis, prevents ischemic injury and improves cell survival, while small molecular inhibition of PFKFB3 severely exacerbates ischemic injury. Thus, in some embodiments, the genetic target is PFKFB3. […] The compounds include, for example, metform in, phenformin, biperiden hydrochloride, clemastine, meclizine, berberine chloride, vinpocetine, pimozide, and mefloquine.
Many Food and Drug Administration (FDA) approved drugs and other chemical compounds have off-target effects on cellular metabolism, including the ability to enhance glycolytic metabolism. Cardiomyoblast (H9c2; obtained from ATCC) cells were treated with a number of compounds (berberine, clofoctol, phenformin, metformin, pentamidine, clemastine, pimoxide, bisacodyl, meclizine, mefloquine, papaverine, flunarizine, biperiden, vinpocetine, and niclosamide) at a final concentration of 1 μM prior to experimental hypoxia for 72 hours. […] Human kidney fibroblast cells were also treated with the compound prior to experimental hypoxia. […] In addition, primary mouse cortical neurons were treated with the compounds prior to experimental ischemia.

SMILES	cell growth/survival in hypoxia
COc1ccc2cc3[n+](cc2c1OC)CCc1cc2c(cc1-3)OCO2 [berberine chloride]	improve cell growth/survival in hypoxia
OC(CCN1CCCCC1)(c1ccccc1)C1CC2C=CC1C2 (stereo not drawn) [biperiden hydrochloride]	improve cell growth/survival in hypoxia
CN1CCC[C@@H]1CCO[C@](C)(c1ccccc1)c1ccc(Cl)cc1 [clemastine]	improve cell growth/survival in hypoxia
Cc1cccc(CN2CCN(C(c3ccccc3)c3ccc(Cl)cc3)CC2)c1 (stereo not drawn) [meclizine]	improve cell growth/survival in hypoxia
OC(c1cc(C(F)(F)F)nc2c(C(F)(F)F)cccc12)C1CCCCN1 (stereo not drawn) [mefloquine]	improve cell growth/survival in hypoxia
CN(C)C(=N)N=C(N)N [metform in, metformin]	improve cell growth/survival in hypoxia
[H]/N=C(/N)N/C(=N/[H])NCCc1ccccc1 [phenformin]	improve cell growth/survival in hypoxia
CCOC(=O)C1=C[C@]2(CC)CCCN3CCc4c(n1c1ccccc41)[C@@H]32 [vinpocetine]	improve cell growth/survival in hypoxia
